How the values were obtained:
PSAM-GlyR = details: Magnus et al. 2011; cited from earlier work
[1] = biological target: T1, PSAM-GlyR in CCK^+ dorsal horn neurons (Homo sapiens, UniProt P23415+P36544, L141F); format: in vivo, mouse; details: CCK^Cre mice with PSAM-GlyR
T1 construct: plasmid from Addgene (Sternson); host or cells: mouse dorsal horn neurons transduced with Cre-dependent AAV2/8 (Tlx3^Cre, CCK^Cre or Calr^Cre mice)
Text: (§1) Methods. Animals: All animals were kept on a standard 12:12 light/dark cycle in micro-isolator caging racks (Allentown Caging) with food and water provided ad libitum. Mouse strains obtained from Jackson Laboratories include C57Bl/6J (JAX #000664), Calr^Cre (JAX #010774) and CCK^Cre (JAX #012706). Adeno-associated viruses (AAV2/8) used in these experiments: hSyn-Flex-rev-PSAM^L141F-GlyR-IRES-eGFP (7^12 vg/ml) and hSyn-Flex-rev-PSAM^L141F,Y115F-GlyR-IRES-eGFP (1.7^13 vg/ml) were custom made by UNC Vector core based on plasmid material developed by Scott Sternson and provided by Addgene. The hSyn-Flex-rev-PSAM^L141F-GlyR-IRES-eGFP (7^12 vg/ml) was used in all experiments except FIG. 8 (e,f). For these experiments, hSyn-Flex-rev-PSAM^L141F,Y115F-GlyR-IRES-eGFP (1.7^13 vg/ml) was used. Methods including: intra-spinal virus injections, paw withdrawal threshold to von Frey filaments, to cotton swab, Hargreaves, pinprick and acute pain behaviors licking, guarding, flicking are all as previously described (Peirs, C. et al. Dorsal Horn Circuits for Persistent Mechanical Pain. Neuron 87, 797-812 (2015); Seal, R. P. et al. Injury-induced mechanical hypersensitivity requires C-low threshold mechanoreceptors. Nature 462, 651-655, (2009)); For paw withdrawal threshold to pressure: mice were lightly restrained by hand such that their rear legs were allowed to freely hang. Using a Pressure Application Measurement device (Ugo Basile) the hind paw was grasped between the experimenter's forefinger and thumb (with pressure transducer on the thumb), and force was slowly applied to the paw until the mouse struggled or flicked its limb (paw withdrawal threshold, PWT). The final force in grams was recorded. Each mouse was tested on the left and right paw for three trials with a ten-minute inter-trial interval between applications, and the three results averaged for each paw. Injury Models including incision, complete Freund's adjuvant, spared nerve injury tibial and sural models, carrageenan, methylglyoxal and multi-dose streptozotocin are as previously described (Peirs, C. et al. Dorsal Horn Circuits for Persistent Mechanical Pain. Neuron 87, 797-812 (2015); Seal, R. P. et al. Injury-induced mechanical hypersensitivity requires C-low threshold mechanoreceptors. Nature 462, 651-655, (2009); Decosterd, I. and Woolf, C. J. Spared nerve injury: an animal model of persistent peripheral neuropathic pain. Pain 87, 149-158 (2000); Bierhaus, A. et al. Methylglyoxal modification of Nav1.8 facilitates nociceptive neuron firing and causes hyperalgesia in diabetic neuropathy. Nat Med 18, 926-933 (2012); Cavanaugh, D. J. et al. Distinct subsets of unmyelinated primary sensory fibers mediate behavioral responses to noxious thermal and mechanical stimuli. Proc Natl Acad Sci USA 106, 9075-9080, (2009)). Chemogenetic Activation of PSAM-GlyR Receptor: Behavior thresholds were performed as described above in AAV8-hSyn-DIO-PSAM-GlyR-IRES-GFP injected mice. PSEM^89S at 30 mg/kg was injected intraperitoneally 15 minutes prior to testing. Immunohistochemistry was performed as previously described (Peirs, C. et al. Dorsal Horn Circuits for Persistent Mechanical Pain. Neuron 87, 797-812 (2015); Seal, R. P. et al. Injury-induced mechanical hypersensitivity requires C-low threshold mechanoreceptors. Nature 462, 651-655 (2009)). α-bungarotoxin conjugated to Alexa-647 (1:1000; ThermoFisher B35450), α-bungarotoxin conjugated to Alexa-488 (1:1000; ThermoFisher B13422). Imaging: Spinal cord sections were imaged with a confocal laser-scanning microscope (Nikon A1R) and Nikon Elements software using 405-, 488-, 561- and 640 nm excitation laser light. In order to suppress emission crosstalk, the microscope was configured to perform all scanning in sequential mode. Z-series were scanned at 20× magnification with an oil immersion lens and a z-step of 5.0 μm. Quantification and Statistical Analysis: all data are reported as mean±SEM. For acute behaviors, a two-tailed Student's t-test was used. […]

[2] = biological target: T2, PSAM-GlyR in calretinin neurons in the dorsal horn lamina II (Homo sapiens, UniProt P23415+P36544, L141F); format: in vivo, mouse; details: Calr^Cre mice with PSAM-GlyR, 30 mg/kg i.p.
T2 construct: plasmid from Addgene (Sternson); host or cells: mouse dorsal horn neurons transduced with Cre-dependent AAV2/8 (Tlx3^Cre, CCK^Cre or Calr^Cre mice)
Text: as §1

T2 sequence (P36544+P23415 fused P36544:L141F): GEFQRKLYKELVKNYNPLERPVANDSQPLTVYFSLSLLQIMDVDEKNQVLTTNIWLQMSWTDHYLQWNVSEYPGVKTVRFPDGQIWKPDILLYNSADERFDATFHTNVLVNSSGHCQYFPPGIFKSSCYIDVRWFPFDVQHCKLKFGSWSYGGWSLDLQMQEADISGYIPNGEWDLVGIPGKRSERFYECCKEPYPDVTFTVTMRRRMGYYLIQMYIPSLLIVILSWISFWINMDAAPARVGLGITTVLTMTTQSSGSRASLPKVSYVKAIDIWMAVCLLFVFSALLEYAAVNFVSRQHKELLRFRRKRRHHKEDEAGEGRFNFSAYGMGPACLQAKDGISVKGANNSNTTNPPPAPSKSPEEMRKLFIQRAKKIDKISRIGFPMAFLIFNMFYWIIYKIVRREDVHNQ
T1 sequence (P36544+P23415 fused P36544:L141F): as above

COc1ccc(OC)c(C(=O)NC2CN3CCC2CC3)c1 (stereo not shown) [PSEM^89S]
not altered: performance on the rotarod [1]
high affinity: binding to the mutated receptor binding domain (PSAM-GlyR)
no effect: baseline von Frey threshold ([1]; 30 mg/kg i.p., p=0.2192) | baseline pinprick ([1]; p=0.5983) | baseline response to cotton swab ([1]; p=0.7293) | baseline pressure with calibrated calipers ([1]; p=0.7450) | baseline ipsilateral von Frey threshold ([2]; p=0.3988) | baseline pinprick ([2]; p=0.7689) | baseline response to cotton swab ([2]; p=0.7963) | baseline pressure with calibrated calipers ([2]; p=0.8350) | baseline sticky tape ([2]; p=0.9346)
unchanged: baseline Hargreaves latencies ([1]; p=0.9746) | baseline Hargreaves latencies ([2]; p=0.6125)
